Like-named read-outs stand apart in the source and are kept apart here.
Experiments:
Type in all cases: in vivo
[1] = test system: buckwheat, wild (wild buckwheat, Polygonum convolvulus); assay: Test D pre-/postemergence: buckwheat, wild
How it was run: (§1)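 We sprayed chemicals in a surfactant-containing solvent onto silt loam at planting (preemergence) and onto 1- to 4-leaf seedlings (postemergence). Fourteen to 21 days later, each species was rated visually from 0 to 100 relative to controls.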

[2] = test system: barnyardgrass (Echinochloa crus-galli); assay: Test C flooded paddy test: barnyardgrass; conditions: Echinochloa crus-galli, scale 0 to 100 (0 no effect, 100 complete control), read-out: Plant response rating, Barnyardgrass; for pest or weed control at 125 g/ha: 125 g ai/ha; for pest or weed control at 250 g/ha: 250 g ai/ha; for pest or weed control at 31 g/ha: 31 g ai/ha; for pest or weed control at 62 g/ha: 62 g ai/ha
How it was run: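 Greenhouse plants treated at the 2-leaf stage by dosing the flood water (3 cm depth, maintained) were compared with controls after 13 to 15 days and rated 0 to 100, where 100 means complete control; a dash marks no test result.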

[3] = test system: surinam grass (Brachiaria decumbens); assay: Test C pre-/postemergence: surinam grass
How it was run: (§2)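 Visual injury scored 0–100 (100 = complete control) against untreated controls after 13–15 greenhouse days. Surfactant-containing solvent formulations applied either to soil after sowing (loam/sand) or over 1- to 4-leaf plants, 2–18 cm tall.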

[4] = test system: blackgrass (Alopecurus myosuroides); assay: Test D pre-/postemergence: blackgrass
How it was run: as §1

[5] = test system: canarygrass (Phalaris minor); assay: Test D pre-/postemergence: canarygrass
How it was run: as §1

[6] = test system: oat, wild (wild oat, Avena fatua); assay: Test D pre-/postemergence: oat, wild
How it was run: as §1

[7] = test system: cocklebur (common cocklebur, Xanthium strumarium); assay: Test C pre-/postemergence: cocklebur
How it was run: as §2

[8] = test system: chamomile (scentless chamomile, Matricaria inodora); assay: Test D pre-/postemergence: chamomile
How it was run: as §1

[9] = Postemergence, 31 g ai/ha, scale 0 to 100 (0 no effect, 100 complete control)
[10] = Postemergence, 62 g ai/ha, scale 0 to 100 (0 no effect, 100 complete control)
[11] = Postemergence, 125 g ai/ha, scale 0 to 100, 0 no effect, 100 complete control
[12] = Postemergence, 250 g ai/ha, scale 0 to 100 (0 no effect, 100 complete control)
[13] = Postemergence, 16 g ai/ha, scale 0 to 100
[14] = Preemergence, 16 g ai/ha, scale 0 to 100 (0 no effect, 100 complete control)
[15] = Preemergence, 31 g ai/ha, scale 0 to 100 (0 no effect, 100 complete control)
[16] = Preemergence, 62 g ai/ha, scale 0 to 100
[17] = Preemergence, 125 g ai/ha, scale 0 to 100
[18] = Preemergence, 250 g ai/ha, scale 0 to 100
[19] = Flood (flooded paddy test), visual rating after 13 to 15 days
[20] = Postemergence, 250 g ai/ha, scale 0 to 100
[21] = Preemergence, 31 g ai/ha, scale of 0 to 100, 0 is no effect, 100 is complete control
[22] = Preemergence, 125 g ai/ha, scale 0 to 100, 0 no effect, 100 complete control
[23] = Preemergence, 250 g ai/ha, scale 0 to 100, 0 no effect, 100 complete control

Cc1nn(-c2ccc(F)cc2)nc1Oc1ccnc(C(F)(F)F)c1 [Compound 129, 4-[[2-(4-fluorophenyl)-5-methyl-2H-1,2,3-triazol-4-yl]oxy]-2-(trifluoromethyl)pyridine]
Plant response rating: Buckwheat, Wild [1, 9]: 60 | Plant response rating: Buckwheat, Wild [1, 10]: 80 | Plant response rating: Buckwheat, Wild [1, 11]: 100 | Plant response rating: Buckwheat, Wild [1, 12]: 100 | Plant response rating, Buckwheat, Wild [1, 13]: 60 | Plant response rating, Buckwheat, Wild [1, 14]: 0 | Plant response rating, Buckwheat, Wild [1, 15]: 0 | Plant response rating, Buckwheat, Wild [1, 16]: 0 | Plant response rating, Buckwheat, Wild [1, 17]: 70 | Plant response rating, Buckwheat, Wild [1, 18]: 100 | pest or weed control at 125 g/ha [2, 19]: 80% | pest or weed control at 250 g/ha [2, 19]: 85% | pest or weed control at 31 g/ha ([2]; Flood): 55% | pest or weed control at 62 g/ha ([2]; Flood): 75% | Plant response rating, Surinam Grass [3, 9]: 45 | Plant response rating, Surinam Grass [3, 10]: 45 | Plant response rating, Surinam Grass [3, 11]: 50 | Plant response rating, Surinam Grass [3, 20]: 60 | Plant response rating, Surinam Grass [3, 21]: 95 | Plant response rating, Surinam Grass ([3]; Preemergence, 62 g ai/ha, scale of 0 to 100, 0 is no effect, 100 is complete control): 95 | Plant response rating, Surinam Grass [3, 22]: 98 | Plant response rating, Surinam Grass [3, 23]: 98 | Plant response rating: Blackgrass [4, 9]: 10 | Plant response rating: Blackgrass [4, 10]: 10 | Plant response rating: Blackgrass [4, 11]: 50 | Plant response rating: Blackgrass [4, 12]: 70 | Plant response rating, Blackgrass [4, 13]: 5 | Plant response rating, Blackgrass [4, 14]: 0 | Plant response rating, Blackgrass [4, 15]: 0 | Plant response rating, Blackgrass [4, 16]: 30 | Plant response rating, Blackgrass [4, 17]: 100 | Plant response rating, Blackgrass [4, 18]: 100 | Plant response rating: Canarygrass [5, 9]: 10 | Plant response rating: Canarygrass [5, 10]: 15 | Plant response rating: Canarygrass [5, 11]: 70 | Plant response rating: Canarygrass [5, 12]: 80 | Plant response rating, Canarygrass [5, 13]: 10 | Plant response rating, Canarygrass [5, 14]: 0 | Plant response rating, Canarygrass [5, 15]: 15 | Plant response rating, Canarygrass [5, 16]: 100 | Plant response rating, Canarygrass [5, 17]: 100 | Plant response rating, Canarygrass [5, 18]: 100 | Plant response rating: Oat, Wild [6, 9]: 10 | Plant response rating: Oat, Wild [6, 10]: 10 | Plant response rating: Oat, Wild [6, 11]: 20 | Plant response rating: Oat, Wild [6, 12]: 25 | Plant response rating, Oat, Wild [6, 13]: 10 | Plant response rating, Oat, Wild [6, 14]: 0 | Plant response rating, Oat, Wild [6, 15]: 0 | Plant response rating, Oat, Wild [6, 16]: 5 | Plant response rating, Oat, Wild [6, 17]: 55 | Plant response rating, Oat, Wild [6, 18]: 100 | Plant response rating, Cocklebur [7, 9]: 5 | Plant response rating, Cocklebur [7, 10]: 10 | Plant response rating, Cocklebur [7, 11]: 15 | Plant response rating, Cocklebur [7, 20]: 25 | Plant response rating, Cocklebur [7, 21]: 0 | Plant response rating, Cocklebur ([7]; Preemergence, 62 g ai/ha, scale 0 to 100, 0 no effect, 100 complete control): 0 | Plant response rating, Cocklebur [7, 22]: 0 | Plant response rating, Cocklebur [7, 23]: 0 | Plant response rating: Chamomile [8, 9]: 30 | Plant response rating: Chamomile [8, 10]: 30 | Plant response rating: Chamomile [8, 11]: 30 | Plant response rating: Chamomile [8, 12]: 35 | Plant response rating, Chamomile [8, 13]: 20 | Plant response rating, Chamomile [8, 14]: 0 | Plant response rating, Chamomile [8, 15]: 30 | Plant response rating, Chamomile [8, 16]: 30 | Plant response rating, Chamomile [8, 17]: 30 | Plant response rating, Chamomile [8, 18]: 100

Cc1nn(-c2ccc(F)cc2)nc1Cc1ccnc(C(F)(F)F)c1 [Compound 16, 4-[[2-(4-fluorophenyl)-5-methyl-2H-1,2,3-triazol-4-yl]methyl]-2-(trifluoromethyl)pyridine]
Plant response rating: Buckwheat, Wild [1, 9]: 0 | Plant response rating: Buckwheat, Wild [1, 10]: 10 | Plant response rating: Buckwheat, Wild [1, 11]: 20 | Plant response rating: Buckwheat, Wild [1, 12]: 50 | Plant response rating, Buckwheat, Wild [1, 13]: 0 | Plant response rating, Buckwheat, Wild [1, 14]: 0 | Plant response rating, Buckwheat, Wild [1, 15]: 0 | Plant response rating, Buckwheat, Wild [1, 16]: 0 | Plant response rating, Buckwheat, Wild [1, 17]: 0 | Plant response rating, Buckwheat, Wild [1, 18]: 20 | pest or weed control at 62 g/ha [2, 19]: 65% | pest or weed control at 125 g/ha [2, 19]: 70% | pest or weed control at 250 g/ha [2, 19]: 80% | pest or weed control at 31 g/ha ([2]; Flood): 25% | Plant response rating, Surinam Grass [3, 9]: 5 | Plant response rating, Surinam Grass [3, 10]: 5 | Plant response rating, Surinam Grass [3, 11]: 10 | Plant response rating, Surinam Grass [3, 20]: 45 | Plant response rating: Blackgrass [4, 9]: 10 | Plant response rating: Blackgrass [4, 10]: 20 | Plant response rating: Blackgrass [4, 11]: 25 | Plant response rating: Blackgrass [4, 12]: 40 | Plant response rating, Blackgrass [4, 13]: 5 | Plant response rating, Blackgrass [4, 14]: 0 | Plant response rating, Blackgrass [4, 15]: 0 | Plant response rating, Blackgrass [4, 16]: 40 | Plant response rating, Blackgrass [4, 17]: 70 | Plant response rating, Blackgrass [4, 18]: 100 | Plant response rating: Canarygrass [5, 9]: 30 | Plant response rating: Canarygrass [5, 10]: 35 | Plant response rating: Canarygrass [5, 11]: 40 | Plant response rating: Canarygrass [5, 12]: 80 | Plant response rating, Canarygrass [5, 13]: 20 | Plant response rating, Canarygrass [5, 14]: 20 | Plant response rating, Canarygrass [5, 15]: 40 | Plant response rating, Canarygrass [5, 16]: 50 | Plant response rating, Canarygrass [5, 17]: 90 | Plant response rating, Canarygrass [5, 18]: 100 | Plant response rating: Oat, Wild [6, 9]: 10 | Plant response rating: Oat, Wild [6, 10]: 30 | Plant response rating: Oat, Wild [6, 11]: 45 | Plant response rating: Oat, Wild [6, 12]: 50 | Plant response rating, Oat, Wild [6, 13]: 0 | Plant response rating, Oat, Wild [6, 14]: 0 | Plant response rating, Oat, Wild [6, 15]: 10 | Plant response rating, Oat, Wild [6, 16]: 10 | Plant response rating, Oat, Wild [6, 17]: 100 | Plant response rating, Oat, Wild [6, 18]: 100 | Plant response rating, Cocklebur [7, 9]: 35 | Plant response rating, Cocklebur [7, 10]: 45 | Plant response rating, Cocklebur [7, 11]: 45 | Plant response rating, Cocklebur [7, 20]: 45 | Plant response rating: Chamomile [8, 9]: 0 | Plant response rating: Chamomile [8, 10]: 0 | Plant response rating: Chamomile [8, 11]: 5 | Plant response rating: Chamomile [8, 12]: 10 | Plant response rating, Chamomile [8, 13]: 0 | Plant response rating, Chamomile [8, 14]: 0 | Plant response rating, Chamomile [8, 15]: 0 | Plant response rating, Chamomile [8, 16]: 25 | Plant response rating, Chamomile [8, 17]: 70 | Plant response rating, Chamomile [8, 18]: 100

Source: patent US9302999B2, “Substituted triazoles as herbicides” (E. I. DU PONT DE NEMOURS AND COMPANY, priority 2012, dated 2016)
